# Assay results as given in US7816408B2, “Calcium receptor active compounds” (NPS Pharmaceuticals, Inc., priority 2002, dated 2010).
# Key:
# [1] = molecular target: T1, human calcium receptor (Homo sapiens, UniProt P41180); test: Activity on calcium receptors: fluo-3 fluorescence in HEK293 cells transfected with human calcium receptor gene; assay type: cell-based; settings: HEK293 cells transfected with plasmid pHuPCaR4.0 (human calcium receptor gene), loaded with fluo-3; 1 mM CaCl2, 1 mM MgCl2
# T1 construct: expressed in transfected cells; host or cells: HEK293
# T1 sequence (P41180 20-1078): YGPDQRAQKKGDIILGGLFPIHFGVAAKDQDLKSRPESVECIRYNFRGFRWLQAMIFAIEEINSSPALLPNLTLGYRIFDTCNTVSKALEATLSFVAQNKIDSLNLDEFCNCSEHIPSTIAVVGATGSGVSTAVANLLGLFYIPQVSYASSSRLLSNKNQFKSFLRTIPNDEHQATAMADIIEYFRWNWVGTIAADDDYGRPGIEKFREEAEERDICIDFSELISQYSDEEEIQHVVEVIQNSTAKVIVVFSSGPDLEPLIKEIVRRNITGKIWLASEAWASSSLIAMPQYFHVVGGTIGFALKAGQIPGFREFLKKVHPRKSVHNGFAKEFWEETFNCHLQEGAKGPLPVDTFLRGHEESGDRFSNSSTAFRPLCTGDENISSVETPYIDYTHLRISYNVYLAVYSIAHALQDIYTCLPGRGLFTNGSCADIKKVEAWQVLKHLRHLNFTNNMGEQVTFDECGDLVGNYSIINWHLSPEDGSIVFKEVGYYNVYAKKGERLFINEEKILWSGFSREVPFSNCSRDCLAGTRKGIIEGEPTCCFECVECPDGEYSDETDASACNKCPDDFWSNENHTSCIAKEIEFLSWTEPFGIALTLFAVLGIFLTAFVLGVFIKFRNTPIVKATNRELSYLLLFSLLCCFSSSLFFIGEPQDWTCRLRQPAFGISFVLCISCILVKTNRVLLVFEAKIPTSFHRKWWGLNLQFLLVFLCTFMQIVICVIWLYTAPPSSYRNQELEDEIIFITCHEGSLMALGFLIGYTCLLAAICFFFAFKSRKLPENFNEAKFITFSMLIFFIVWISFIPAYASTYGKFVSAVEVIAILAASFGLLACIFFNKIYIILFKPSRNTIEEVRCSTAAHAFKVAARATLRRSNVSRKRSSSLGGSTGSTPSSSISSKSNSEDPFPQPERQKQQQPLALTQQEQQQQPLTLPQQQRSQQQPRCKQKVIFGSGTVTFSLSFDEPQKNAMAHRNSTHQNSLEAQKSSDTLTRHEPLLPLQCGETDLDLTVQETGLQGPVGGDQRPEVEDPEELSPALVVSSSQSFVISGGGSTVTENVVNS
# Method: The activities of the compounds of the present invention on calcium receptors were measured. The measurement was performed in accordance with the method described in Example 4 of Nemeth et al., PCT/US95/13704 (International Publication No. WO96/12697). In brief, HEK293 cells were transfected with a plasmid pHuPCaR4.0 containing a human calcium receptor gene and loaded with fluo-3. The loading was carried out by incubating the cells at 37° C. for 1 hour in Dulbecco's modified Eagle's medium which contained about 5 μM of fluo-3/AM and had been buffered with 20 mM HEPES. Next, the cells were rinsed with Hank's balanced salt solution which contained 1 mM CaCl2 and 1 mM MgCl2 and had been buffered with 20 mM HEPES. Then each test compound was added to the cells and the fluorescence was measured with the use of an excitation wavelength of 485 nm and an emission wavelength of 540 nm.
# [2] = test system: normal male SD rats; test: Plasma Ca^2+ level of rats after single oral administration; assay type: in vivo; settings: rat, mean of six animals, vehicle 10% cyclodextrin (** 1% sodium-CMC)
# Method: The compound of the present invention was administered to rats so as to examine the effects of the compound on the plasma calcium ion level and serum PTH level. The test was performed by orally administering single dose of the compound of the invention or a control compound to normal male SD rats with six animals in each group.
# To the group 1 was administered as a control a 10% cyclodextrin aqueous solution in a dose of 2.5 ml/kg. To the group 2 was administered as a reference (R)-N-(3-(2-chlorophenyl)propyl)-1-(3-methoxyphenyl)ethylamine (KRN568) dissolved in a 10% cyclodextrin aqueous solution in a dose of 30 μmol/kg. To the group 3 was administered the compound of the present invention dissolved in a 10% cyclodextrin aqueous solution in a dose of 30 μmol/kg, provided that 1% sodium-CMC aqueous solution was used in place of 10% cyclodextrin aqueous solution for the compounds marked with ** in Table 2.
# Blood of each rat was collected from the tail tip before the administration and 30 minutes and 1, 2, 4, 8 and 24 hours thereafter (or at the time indicated in Table 2), and the plasma Ca^2+ level and serum PTH level were measured. The data of the serum PTH level were statistically processed by the multiple comparison analysis in accordance with Steel's calibration by using the group 1 as the control.
Structure (SMILES),EC50 [1],also measured
"CC(NCCSc1cc(Cl)ccc1Cl)c1cccc(OCCCCCCCl)c1 (racemic) [Compound K-2260, (±)-N-(1-(3-(6-chlorohexyloxy)phenyl)ethyl)-2-(2′,5′-dichlorophenylthio)ethylamine]",96 nM,
"Cc1ccc(COc2cccc(C(C)NCCSc3cc(Cl)ccc3Cl)c2)cc1 (racemic) [Compound K-2268, (±)-N-(1-(3-(4-methylbenzyloxy)phenyl)ethyl)-2-(2′,5′-dichlorophenylthio)ethylamine]",89 nM,
COc1cccc(C(C)NCCCCOc2ccccc2Cl)c1 (centres unmarked) [Compound 2],13000 nM,
COc1cccc(C(C)NCCCCCCOc2ccccc2Cl)c1 (centres unmarked) [Compound 6],7600 nM,
COc1cccc(C(C)NCCCCOc2cccc(Cl)c2)c1 (centres unmarked) [Compound 8],1900 nM,
COc1cccc(C(C)NCCCCCOc2cccc(Cl)c2)c1 (centres unmarked) [Compound 10],1000 nM,
COc1cccc(C(C)NCCCCCCOc2cccc(Cl)c2)c1 (centres unmarked) [Compound 12],1200 nM,
COc1cccc([C@@H](C)NCCCCOc2ccc(Cl)cc2)c1 [Compound 14],2900 nM,
COc1cccc(C(C)NCCCCCOc2ccc(Cl)cc2)c1 (centres unmarked) [Compound 16],550 nM,
COc1cccc(C(C)NCCCCCCOc2ccc(Cl)cc2)c1 (centres unmarked) [Compound 18],750 nM,
COc1cccc(C(C)NCCCSc2ccccc2Cl)c1 (centres unmarked) [Compound 20],3200 nM,
COc1cccc(C(C)NCCCCCSc2ccccc2Cl)c1 (centres unmarked) [Compound 24],440 nM,
COc1cccc(C(C)NCCCCCCSc2ccccc2Cl)c1 (centres unmarked) [Compound 26],1800 nM,
COc1cccc(C(C)NCCCSc2ccc(Cl)cc2)c1 (centres unmarked) [Compound 28],1600 nM,
COc1cccc(C(C)NCCCCSc2nc3ccccc3s2)c1 (centres unmarked) [Compound 36],210 nM,
COc1cccc(C(C)NCCCCCSc2nc3ccccc3s2)c1 (centres unmarked) [Compound 38],980 nM,
COc1cccc([C@@H](C)NCCCCCCSc2nc3ccccc3s2)c1 [Compound 40],5100 nM,
COc1cccc(C(C)NCCCOC2c3ccccc3-c3ccccc32)c1 (centres unmarked) [Compound 56],280 nM,
COc1cccc(C(C)NCCCOc2ccc3c(c2)Cc2ccccc2-3)c1 (centres unmarked) [Compound 59],1020 nM,
COc1cccc(C(C)NCCCOc2ccccc2Cl)c1 (centres unmarked) [Compound 62],509 nM,

Structure (SMILES),EC50 [1],also measured
COc1cccc(C(C)NCCCOc2cccc(Cl)c2)c1 (centres unmarked) [Compound 65],524 nM,
COc1cccc(C(C)NCCCOc2ccc(Cl)cc2)c1 (centres unmarked) [Compound 68],650 nM,
COc1cccc(C(C)NCCCOc2ccc3ccccc3c2)c1 (centres unmarked) [Compound 74],7200 nM,
COc1cccc(C(C)NCCCSc2ccc3ccccc3c2)c1 (centres unmarked) [Compound 77],1000 nM,
COc1cccc(C(C)NCCCOc2ccc3[nH]ccc3c2)c1 (centres unmarked) [Compound 80],464 nM,
COc1cccc([C@@H](C)NCCCOc2ccc(-c3ccccc3)cc2)c1 [Compound 83],1000 nM,
COc1cccc(C(C)NCCCNC(C)c2cccc(OC)c2)c1 (centres unmarked) [Compound 88],3200 nM,
CC(NCCCNC(C)c1cccc2ccccc12)c1cccc2ccccc12 (centres unmarked) [Compound 93],110 nM,
CC(NCCCOc1ccc2oc(-c3ccccc3)cc(=O)c2c1)c1cccc2ccccc12 (centres unmarked) [Compound 103],300 nM,
CC(NCCCOc1ccc2[nH]ccc2c1)c1cccc2ccccc12 (centres unmarked) [Compound 112],78 nM,
COc1cccc(C(C)NCCCOc2ccc(Br)cc2)c1 (centres unmarked) [Compound K-2003],290 nM,
COc1cccc(C(C)NCCCCOc2ccc(Br)cc2)c1 (centres unmarked) [Compound K-2004],420 nM,
COc1cccc(C(C)NCCCCCOc2ccc(Br)cc2)c1 (centres unmarked) [Compound K-2005],430 nM,
COc1cccc(C(C)NCCCCCCOc2ccc(Br)cc2)c1 (centres unmarked) [Compound K-2006],770 nM,
COc1cccc([C@@H](C)NCCCCCCCOc2ccc(Br)cc2)c1 [Compound K-2007],470 nM,
COc1cccc(C(C)NCCSc2cccc(C(F)(F)F)c2)c1 (centres unmarked) [Compound K-2008],860 nM,
COc1cccc(C(C)NCCCCSc2cccc(C(F)(F)F)c2)c1 (centres unmarked) [Compound K-2010],140 nM,
COc1cccc([C@@H](C)NCCCCCSc2cccc(C(F)(F)F)c2)c1 [Compound K-2011],210 nM,
COc1cccc(C(C)NCCCCCCSc2cccc(C(F)(F)F)c2)c1 (centres unmarked) [Compound K-2012],870 nM,
COc1cccc(C(C)NCCSc2ccccc2Br)c1 (centres unmarked) [Compound K-2015],490 nM,

Structure (SMILES),EC50 [1],also measured
COc1cccc(C(C)NCCCSc2ccccc2Br)c1 (centres unmarked) [Compound K-2016],360 nM,
COc1cccc(C(C)NCCCCSc2ccccc2Br)c1 (centres unmarked) [Compound K-2017],360 nM,
COc1cccc(C(C)NCCCCCSc2ccccc2Br)c1 (centres unmarked) [Compound K-2018],330 nM,
CC(NCCOc1cccc(Cl)c1)c1cccc2ccccc12 (centres unmarked) [Compound K-2030],49 nM,
COc1cccc(C(C)NCCCCSc2ccc([N+](=O)[O-])cc2)c1 (centres unmarked) [Compound K-2033],350 nM,
COc1cccc(C(C)NCCCCCSc2ccc([N+](=O)[O-])cc2)c1 (centres unmarked) [Compound K-2034],61 nM,
COc1cccc(C(C)NCCCCCCSc2ccc([N+](=O)[O-])cc2)c1 (centres unmarked) [Compound K-2035],220 nM,
COc1cccc(C(C)NCCCCSc2ccc(F)cc2)c1 (centres unmarked) [Compound K-2040],80 nM,
COc1cccc(C(C)NCCCCCSc2ccc(F)cc2)c1 (centres unmarked) [Compound K-2041],100 nM,
COc1cccc(C(C)NCCSc2cccc(Br)c2)c1 (centres unmarked) [Compound K-2045],870 nM,
COc1cccc(C(C)NCCCSc2cccc(Br)c2)c1 (centres unmarked) [Compound K-2046],140 nM,
COc1cccc(C(C)NCCCCSc2cccc(Br)c2)c1 (centres unmarked) [Compound K-2047],130 nM,
COc1cccc(C(C)NCCCCCSc2cccc(Br)c2)c1 (centres unmarked) [Compound K-2048],730 nM,
COc1cccc(C(C)NCCCCCCSc2cccc(Br)c2)c1 (centres unmarked) [Compound K-2049],830 nM,
COc1cccc(C(C)NCCCCCCCSc2cccc(Br)c2)c1 (centres unmarked) [Compound K-2050],550 nM,
COc1cccc(C(C)NCCCCCCCCSc2cccc(Br)c2)c1 (centres unmarked) [Compound K-2051],340 nM,
COc1cccc(C(C)NCCCSc2ccc(C(F)(F)F)cc2)c1 (centres unmarked) [Compound K-2055],57 nM,
COc1cccc(C(C)NCCCCSc2ccc(C(F)(F)F)cc2)c1 (centres unmarked) [Compound K-2056],39 nM,
"COc1cccc([C@@H](C)NCCCc2ccccc2Cl)c1 [KRN568, (R)-N-(3-(2-chlorophenyl)propyl)-1-(3-methoxyphenyl)ethylamine, reference compound]",,Plasma Ca^2+ (mmol/l) 1 hr ([2]; 1 hr after single oral dose 30 μmol/kg): 1.305 mmol/L; Plasma Ca^2+ (mmol/l) 2 hr ([2]; 2 hr after single oral dose 30 μmol/kg): 1.237 mmol/L; Plasma Ca^2+ (mmol/l) 4 hr ([2]; 4 hr after single oral dose 30 μmol/kg): 1.290 mmol/L; Plasma Ca^2+ (mmol/l) 8 hr ([2]; 8 hr after single oral dose 30 μmol/kg): 1.340 mmol/L
